# From patent publication US9670487B2, “Cationic lipids for oligonucleotide delivery” (SIRNA THERAPEUTICS, INC., priority 2010, dated 2017)
# Experiments:
# [1] = test system: mRNA transcript for the firefly (Photinus pyralis) luciferase gene; experiment: In vivo efficacy in luciferase mouse model (LNP/RDV with Luc siRNA); details: for inhibition at 0.3 mg/kg: Mus musculus, LNPs prepared from the compound with Luc siRNA, 0.3 mg Kg^-1, tail vein, imaged 48 hours post dose, relative to pre-dose luminescence, read-out: Average % Inhibition of Bioluminescence
# Procedure: LNPs utilizing the compounds of the instant invention, in the nominal compositions described immediately above, were evaluated for in vivo efficacy and induction of inflammatory cytokines in a luciferase mouse model. The siRNA targets the mRNA transcript for the firefly (Photinus pyralis) luciferase gene (Accession # M15077). […] The in vivo luciferase model employs a transgenic mouse in which the firefly luciferase coding sequence is present in all cells. ROSA26-LoxP-Stop-LoxP-Luc (LSL-Luc) transgenic mice licensed from the Dana Farber Cancer Institute are induced to express the Luciferase gene by first removing the LSL sequence with a recombinant Ad-Cre virus (Vector Biolabs). Due to the organo-tropic nature of the virus, expression is limited to the liver when delivered via tail vein injection. Luciferase expression levels in liver are quantitated by measuring light output, using an IVIS imager (Xenogen) following administration of the luciferin substrate (Caliper Life Sciences). Pre-dose luminescence levels are measured prior to administration of the RDVs. Luciferin in PBS (15 mg/mL) is intraperitoneally (IP) injected in a volume of 150 uL. After a four minute incubation period mice are anesthetized with isoflurane and placed in the IVIS imager. The RDVs (containing siRNA) in PBS vehicle were tail vein injected n a volume of 0.2 mL. Final dose levels ranged from 0.3 to 3 mg/kg siRNA. PBS vehicle alone was dosed as a control. Three hours post dose, mice were bled retro-orbitally to obtain plasma for cytokine analysis. Mice were imaged 48 hours post dose using the method described above. Changes in luciferin light output directly correlate with luciferase mRNA levels and represent an indirect measure of luciferase siRNA activity. In vivo efficacy results are expressed as % inhibition of luminescence relative to pre-dose luminescence levels. Plasma cytokine levels were determined using the SearchLight multiplexed cytokine chemiluminescent array (Pierce/Thermo). Systemic administration of the luciferase siRNA RDVs decreased luciferase expression in a dose dependant manner. […]
# [2] = Rat in vivo tolerability: serum ALT and AST after LNP dosing; details: Sprague-Dawley female rats; RDV with ApoB siRNA; tail vein; 24 hours after dosing; FIG. 4
# Procedure: Six hours post dose, food is removed from the cages. Animal necropsy is performed 24 hours after LNP dosing. Rats are anesthetized under isoflurane for 5 minutes, then maintained under anesthesia by placing them in nose cones continuing the delivery of isoflurane until ex-sanguination is completed. Blood is collected from the vena cava using a 23 gauge butterfly venipuncture set and aliquoted to serum separator vacutainers for serum chemistry analysis. Punches of the excised caudate liver lobe are taken and placed in RNALater (Ambion) for mRNA analysis. Preserved liver tissue was homogenized and total RNA isolated using a Qiagen bead mill and the Qiagen miRNA-Easy RNA isolation kit following the manufacturer's instructions. Liver ApoB mRNA levels were determined by quantitative RT-PCR. Message was amplified from purified RNA utilizing a rat ApoB commercial probe set (Applied Biosystems Cat # RN01499054_ml). The PCR reaction was performed on an ABI 7500 instrument with a 96-well Fast Block. The ApoB mRNA level is normalized to the housekeeping PPIB (NM 011149) mRNA. PPIB mRNA levels were determined by RT-PCR using a commercial probe set (Applied Biosystems Cat. No. Mm00478295_ml). Results are expressed as a ratio of ApoB mRNA/PPIB mRNA. All mRNA data is expressed relative to the PBS control dose. […]
# [3] = test system: mRNA transcript for the ApoB gene; experiment: Rhesus monkey in vivo efficacy: serum LDL-C as surrogate marker of ApoB mRNA reduction; parameters: species or system Macaca mulatta (rhesus) monkeys; details: RDVs containing the compound and ApoB siRNA; 1 mg/kilogram siRNA intravenous; 2-12 days post administration; FIG. 6
# Procedure: LNPs utilizing compound 34 in the nominal compositions described above, were evaluated for in vivo efficacy in male or female Macaca mulatta (rhesus) monkeys. The siRNA targets the mRNA transcript for the ApoB gene (Accession # XM 001097404). […] The RDVs (containing siRNA) in PBS vehicle were administered by intravenous injection in the saphenous vein at an injection rate of 20 mL/minute to a dose level of 1 mg/kilogram siRNA. The injection volumes were from 1.9 to 2.1 mL/kilogram and monkeys ranged in weight from 2.5 to 4.5 kilograms. The RDV or PBS control were administered to three monkeys. At multiple days post dose, 1 mL blood samples were drawn from the femoral artery for serum chemistry analysis. Monkeys were fasted overnight prior to blood draws. As a measure of efficacy, LDL-C was monitored as a downstream surrogate marker of ApoB mRNA reduction. At 2-12 days post systemic administration of RDVs containing compound 34, serum levels of LDL-C were reduced to less than 30% of pre-dose levels (FIG. 6).
smiles,measurement,setting,value
"CCCCC/C=C\C/C=C\CCCCCCCCOC(CN(C)C)OCCCCCCCC/C=C\C/C=C\CCCCC [Compound 2, N,N-dimethyl-2,2-bis[(9Z,12Z)-octadeca-9,12-dien-1-yloxy]ethanamine]",inhibition at 0.3 mg/kg,[1],64%
same,"Efficacy compared with RDV containing octyl-CLinDMA cationic lipid, Compound 4","[1]; mice dosed with RDVs containing the compound and Luc siRNA, Table 1",Greater efficacy
"CCCCC/C=C\C/C=C\CCCCCCCCOCC(CN(C)C)OCCCCCCCCO[C@H]1CC[C@@]2(C)C(=CC[C@H]3[C@@H]4CC[C@H]([C@H](C)CCCC(C)C)[C@@]4(C)CC[C@@H]32)C1 (some centres unmarked) [Compound 4, S-Octyl CLinDMA, reference compound]",inhibition at 0.3 mg/kg,[1],55%
"CCCCC/C=C\C/C=C\CCCCCCCCOC(CN(C)C)OCCCCCCCC (centres unmarked) [Compound 31, N,N-dimethyl-2-[(9Z,12Z)-octadeca-9,12-dien-1-yloxy]-2-(octyloxy)ethanamine]",Tolerability (serum ALT and AST) compared with RDV containing DLinKC2DMA cationic lipid 64,[2],better tolerability
"CCC/C=C\CCCCCCCOC(CN1CCCC1)OCCCCCCCC/C=C\C/C=C\CCCCC (centres unmarked) [Compound 34, 1-{2-[(8Z)-dodec-8-en-1-yloxy]-2-[(9Z,12Z)-octadeca-9,12-dien-1-yloxy]ethyl}pyrrolidine]",Serum levels of LDL-C,[3],less than 30 % of pre-dose levels
